How the values were obtained:
Experiment in all cases: relative viability (nuclei count vs DMSO), 5 days (fraction); higher = more cells survive
[1] = compound: Nc1ncn([C@H]2C[C@H](O)[C@@H](CO)O2)c(=O)n1 [Decitabine] + CS(=O)(=O)CCNCc1ccc(-c2ccc3ncnc(Nc4ccc(OCc5cccc(F)c5)c(Cl)c4)c3c2)o1 [Lapatinib] (partner 2 µM)
In short: (§1)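 Lung cancer cell lines were pin-tool dosed in 1536-well plates on the day after seeding, with either a lone drug or a fixed anchor-drug dose plus five library-drug doses (not always all listed) in √10 steps. Nuclei were counted on 4× images after 5 days. Relative viability is the ratio of treated-well to vehicle-well nuclei counts, with each value a median of duplicate plates.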

[2] = compound: Nc1ncn([C@H]2C[C@H](O)[C@@H](CO)O2)c(=O)n1 [Decitabine] + CS(=O)(=O)N1CCN(Cc2cc3nc(-c4cccc5[nH]ncc45)nc(N4CCOCC4)c3s2)CC1 [Pictilisib] (partner 1 µM)
In short: as §1

[3] = compound: COc1cc2c(Oc3ccc4[nH]c(C)cc4c3F)ncnc2cc1OCCCN1CCCC1 [Cediranib] + Cc1nc(Nc2ncc(C(=O)Nc3c(C)cccc3Cl)s2)cc(N2CCN(CCO)CC2)n1 [Dasatinib] (partner 0.075 µM)
In short: as §1

[4] = compound: Nc1ncn([C@H]2C[C@H](O)[C@@H](CO)O2)c(=O)n1 [Decitabine] + O=C(c1cc(Cc2n[nH]c(=O)c3ccccc23)ccc1F)N1CCN(C(=O)C2CC2)CC1 [Olaparib] (partner 8 µM)
In short: as §1

UMC-11
relative viability ([1]; first compound 0.04 µM): 0.877
relative viability ([1]; first compound 0.1265 µM): 0.832
relative viability ([1]; first compound 0.4 µM): 0.434
relative viability ([1]; first compound 1.265 µM): 0.357
relative viability ([1]; first compound 4 µM): 0.346
relative viability ([2]; first compound 0.04 µM): 0.737
relative viability ([2]; first compound 0.1265 µM): 0.794
relative viability ([2]; first compound 0.4 µM): 0.315
relative viability ([2]; first compound 1.265 µM): 0.335
relative viability ([2]; first compound 4 µM): 0.271
relative viability ([3]; first compound 0.04 µM): 0.5
relative viability ([3]; first compound 0.4 µM): 0.426
relative viability ([3]; first compound 4 µM): 0.539
relative viability ([4]; first compound 0.04 µM): 0.312
relative viability ([4]; first compound 0.1265 µM): 0.301
relative viability ([4]; first compound 0.4 µM): 0.273
relative viability ([4]; first compound 1.265 µM): 0.218
relative viability ([4]; first compound 4 µM): 0.2

Source: the supplement of paper PMC10307832
